Consider eight compounds from patent US10005771B2, “Bicyclic derivatives having β2 adrenergic agonist and M3 muscarinic antagonist activities” (Almirall, S.A., priority 2014, dated 2018).

The target in assay [1] is T1, human muscarinic M3 receptors (Homo sapiens, UniProt P20309).
T1 construct: purchased Perkin Elmer; host or cells: CHO-K1 cells
Put plainly: Human muscarinic M3 receptors binding assay ([3H]-NMS, CHO-K1 membranes). The following applies: membranes from CHO-K1 cells, [3H]-NMS radioligand, two hours incubation. The protocol:
Test 2: Human Muscarinic M3 Receptors Binding Assays
The study of binding to human muscarinic M3 receptors was performed using commercial membranes (Perkin Elmer) prepared from CHO-K1 cells.
Radioligand binding experiments were conducted in 96 polypropylene well plates in a total volume of 200 μl. All reagents were dissolved in assay binding buffer (PBS with calcium and magnesium, SIGMA), except compounds that were dissolved in DMSO 100%. Non-specific binding (NSB) was measured in the presence of 1 μM atropine. [3H]-NM, used as the radioligand was incubated with membranes that express human muscarinic M3 at concentration of 4.9 μg/well.
After an incubation period of two hours with gentle shaking, 150 μl of the reaction mix were transferred to 96 GF/C filter plates (Millipore), previously treated with wash buffer (Tris 50 mM; NaCl 100 mM; pH: 7.4), containing 0.05% PEI (Sigma) during one hour. Bound and free [3H]-NMS were separated by rapid vacuum filtration in a manifold from Millipore and washed four times with ice cold wash buffer. After drying 30 min, 30 μl of OPTIPHASE Supermix were added to each well and radioactivity quantified using a Microbeta microplate scintillation counter.
The affinity of each test compound to the receptor was determined by using ten different concentrations ran in duplicate. IC50s were calculated using Activity Base software from IDBS and the four parameters-log equation.

The target in assay [2] is T2, human adrenergic β2 receptor (Homo sapiens, UniProt P07550).
T2 construct: purchased Perkin Elmer; host or cells: Sf9 cells
The assay is described as follows: Human adrenergic β2 receptor binding assay (3H-CGP12177, Sf9 membranes). To be noted: membranes from Sf9 cells, 0.6 nM 3H-CGP12177, 60 minutes at room temperature. The protocol:
Test 1: Human Adrenergic β1 and β2 Receptor Binding Assays
The study of binding to human adrenergic beta1 and beta2 receptors was performed using commercial membranes prepared from Sf9 cells where they are overexpressed (Perkin Elmer). The membrane suspensions (16 μg/well for beta1 and 5 μg/well for beta2) in assay buffer (75 mM Tris/HCl with 12.5 mM MgCl2 and 2 mM EDTA pH=7.4) were incubated with 0.14 or 0.6 nM of 3H-CGP12177 (Amersham) for beta 1 and beta 2 receptors respectively in a final volume of 250 μl, in GFC Multiscreen 96 well plates (Millipore) previously treated with assay buffer containing 0.3% PEI (Sigma). Non specific binding was measured in the presence of 1 μM propanolol. Incubation was maintained for 60 minutes at room temperature and with gentle shaking. The binding reactions were terminated by filtration and washing with 2.5 volumes of Tris/HCl 50 mM pH=7.4. The affinity of each test compound to the receptor was determined by using ten different concentrations ran in duplicate. IC50s were calculated using Activity Base software from IDBS and the four parameters-log equation.

T1 sequence (P20309 whole entry): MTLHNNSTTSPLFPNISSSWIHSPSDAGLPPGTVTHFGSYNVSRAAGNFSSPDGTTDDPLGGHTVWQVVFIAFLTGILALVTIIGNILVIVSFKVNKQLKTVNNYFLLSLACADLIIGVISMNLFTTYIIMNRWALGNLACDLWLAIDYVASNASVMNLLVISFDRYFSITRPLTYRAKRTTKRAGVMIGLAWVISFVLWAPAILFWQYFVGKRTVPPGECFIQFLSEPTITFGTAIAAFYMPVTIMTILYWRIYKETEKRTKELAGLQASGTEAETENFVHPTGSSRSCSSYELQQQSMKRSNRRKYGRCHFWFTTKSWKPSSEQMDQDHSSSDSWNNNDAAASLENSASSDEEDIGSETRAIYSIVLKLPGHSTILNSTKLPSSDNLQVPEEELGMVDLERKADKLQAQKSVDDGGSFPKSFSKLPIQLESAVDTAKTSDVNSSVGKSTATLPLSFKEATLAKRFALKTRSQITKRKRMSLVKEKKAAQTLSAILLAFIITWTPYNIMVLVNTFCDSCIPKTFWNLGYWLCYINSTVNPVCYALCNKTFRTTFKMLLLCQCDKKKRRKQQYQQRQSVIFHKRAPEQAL
T2 sequence (P07550 whole entry): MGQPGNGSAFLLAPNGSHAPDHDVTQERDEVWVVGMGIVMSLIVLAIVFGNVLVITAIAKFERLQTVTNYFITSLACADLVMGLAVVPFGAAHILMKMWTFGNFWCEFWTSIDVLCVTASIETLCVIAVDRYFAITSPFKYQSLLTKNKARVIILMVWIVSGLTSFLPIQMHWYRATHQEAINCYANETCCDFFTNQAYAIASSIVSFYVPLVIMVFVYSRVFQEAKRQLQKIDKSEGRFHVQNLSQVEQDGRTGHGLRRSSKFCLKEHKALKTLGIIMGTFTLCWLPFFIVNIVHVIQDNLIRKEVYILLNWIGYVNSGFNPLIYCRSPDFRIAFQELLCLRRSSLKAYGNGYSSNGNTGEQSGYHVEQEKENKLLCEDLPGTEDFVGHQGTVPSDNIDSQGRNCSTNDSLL

As to `COc1cc(NC(=O)CCCc2ccc(C3(C(=O)O[C@H]4CN5CCC4CC5)CCCCC3)cc2)c(Cl)cc1CNC[C@H](O)c1ccc(O)c2[nH]c(=O)ccc12` [Example 31, (3R)-1-azabicyclo[2.2.2]oct-3-yl 1-[4-(4-{[2-chloro-4-({[(2R)-2-hydroxy-2-(8-hydroxy-2-oxo-1,2-dihydroquinolin-5-yl)ethyl]amino}methyl)-5-methoxyphenyl]amino}-4-oxobutyl)phenyl]cyclohexanecarboxylate], the IC50 is 0.41 nM in assay [1] and 4 nM in assay [2].

On to `COc1cc(NC(=O)CCCc2cccc(C3(C(=O)OCC4CCNCC4)CCCCC3)c2)c(Cl)cc1CNC[C@H](O)c1ccc(O)c2[nH]c(=O)ccc12` [Example 28, piperidin-4-ylmethyl 1-[3-(4-{[2-chloro-4-({[(2R)-2-hydroxy-2-(8-hydroxy-2-oxo-1,2-dihydroquinolin-5-yl)ethyl]amino}methyl)-5-methoxyphenyl]amino}-4-oxobutyl)phenyl]cyclohexanecarboxylate], for which the IC50 in assay [1] was 0.36 nM; in assay [2], 2.2 nM.

`O=C1c2ccc(CNC[C@H](O)c3ccc(O)c4[nH]c(=O)ccc34)cc2CN1CCCCc1cccc(C2(C(=O)O[C@H]3CN4CCC3CC4)CCCCC2)c1` [Example 23, (3R)-1-azabicyclo[2.2.2]oct-3-yl 1-(3-{4-[5-({[(2R)-2-hydroxy-2-(8-hydroxy-2-oxo-1,2-dihydroquinolin-5-yl)ethyl]amino}methyl)-1-oxo-1,3-dihydro-2H-isoindol-2-yl]butyl}phenyl)cyclohexanecarboxylate]: the IC50 worked out at 0.61 nM in assay [1] and 26 nM in assay [2].

On to `COc1cc(OCC(=O)N(C)CCCc2cccc(C3(C(=O)O[C@H]4CN5CCC4CC5)CCCCC3)c2)c(Cl)cc1CNC[C@H](O)c1ccc(O)c2[nH]c(=O)ccc12` [Example 4, (3R)-1-azabicyclo[2.2.2]oct-3-yl 1-(3-{3-[{[2-chloro-4-({[(2R)-2-hydroxy-2-(8-hydroxy-2-oxo-1,2-dihydroquinolin-5-yl)ethyl]amino}methyl)-5-methoxyphenoxy]acetyl}(methyl)amino]propyl}phenyl)cyclohexanecarboxylate], for which the IC50 in assay [1] worked out at 0.74 nM; in assay [2], 6.6 nM.

On to `COc1cc(OCC(=O)NCCCCc2cccc(C3(C(=O)O[C@H]4CN5CCC4CC5)CCCCC3)c2)c(Cl)cc1CNCC(O)c1ccc(O)c2[nH]c(=O)ccc12` (stereo partly drawn) [Example 24, (3R)-1-azabicyclo[2.2.2]oct-3-yl 1-{3-[4-({[2-chloro-4-({[2-hydroxy-2-(8-hydroxy-2-oxo-1,2-dihydroquinolin-5-yl)ethyl]amino}methyl)-5-methoxyphenoxy]acetyl}amino)butyl]phenyl}cyclohexanecarboxylate], for which the IC50 in assay [1] came out at 0.33 nM; in assay [2], 1.9 nM.

`COc1cc(NC(=O)CCCc2cccc(C3(C(=O)O[C@H]4CN5CCC4CC5)CCCCC3)c2)c(Cl)cc1CNC[C@H](O)c1ccc(O)c2[nH]c(=O)ccc12` [Example 2, (3R)-1-azabicyclo[2.2.2]oct-3-yl 1-[3-(4-{[2-chloro-4-({[(2R)-2-hydroxy-2-(8-hydroxy-2-oxo-1,2-dihydroquinolin-5-yl)ethyl]amino}methyl)-5-methoxyphenyl]amino}-4-oxobutyl)phenyl]cyclohexanecarboxylate]: the IC50 in assay [1] came out at 0.22 nM; in assay [2], 3 nM.

Turning to `COc1cc(NC(=O)CCCc2cccc(C3(C(=O)OCC45CCN(CC4)CC5)CCCCC3)c2)c(Cl)cc1CNC[C@H](O)c1ccc(O)c2[nH]c(=O)ccc12` [Example 18, 1-azabicyclo[2.2.2]oct-4-yl methyl 1-[3-(4-{[2-chloro-4-({[(2R)-2-hydroxy-2-(8-hydroxy-2-oxo-1,2-dihydroquinolin-5-yl)ethyl]amino}methyl)-5-methoxyphenyl]amino}-4-oxobutyl)phenyl]cyclohexanecarboxylate], the IC50 in assay [1] is 0.14 nM; in assay [2], 2.3 nM.

Consider `COc1cc(OCC(=O)OC2CCC(Cc3cccc(C4(C(=O)O[C@H]5CN6CCC5CC6)CCCCC4)c3)CC2)c(Cl)cc1CNC[C@H](O)c1ccc(O)c2[nH]c(=O)ccc12` (stereo partly drawn) [Example 14, (3R)-1-azabicyclo[2.2.2]oct-3-yl 1-(3-{[4-({[2-chloro-4-({[(2R)-2-hydroxy-2-(8-hydroxy-2-oxo-1,2-dihydroquinolin-5-yl)ethyl]amino}methyl)-5-methoxyphenoxy]acetyl}oxy)cyclohexyl]methyl}phenyl)cyclohexanecarboxylate], for which the values for the IC50 in assay [1] and in assay [2] were 7.1 nM and 9 nM, respectively.

One may read the IC50 as the concentration at which inhibition is half-maximal.
